Like-named read-outs stand apart in the source and are kept apart here.
Assay: in vivo
Design: species or system rat
Details: for tissue uptake at 1 h / tissue uptake at 3 h / tissue uptake at 6 h / tissue uptake at 24 h / Tissue uptake findings (in words): rat; for tissue uptake at 1 h / tissue uptake at 3 h / tissue uptake at 6 h / tissue uptake at 24 h: iv; for Tissue uptake findings (in words): in vivo
Procedure: In animal tissue distribution studies, each rate was given 8.9 μCi (0.15 ml) tracer intravenously. The tumor-bearing rats were killed at 1, 3, 6 and 24 h. […] The amount of DES given should occupy tumor estrogen receptor sites. The methods for inducing tumors in rats was as described by those of skill in the art (radiology). […]
Female Fisher 344 rats (250-275 g) (Harlan, Inc., Indianapolis, Ind.) were inoculated with mammary tumor cells using the 13762 tumor cell line (s.c. 10^5 cells/rat). After 14 days, a tumor size of 1-2 cm was observed. For ^131 I-ITX studies, five groups of rats (N=3/group) were anesthetized with ketamine (10-15 mg/rat). The trans ^131 I-ITX was given to four of the five groups (8.9 μCi/rat, i.v.) and biodistribution was studied at 1, 3, 6 and 24 h intervals. In blocking studies, the fifth group of rats was given diethylstilbestrol (DES) (1.2 mg/rat) for 1 h, followed by 8.9 μCi of ^131 I-ITX; biodistribution was studied 6 h later. The tissues were collected at different time intervals. The tissues were weighted and counted for radioactivity. The percent of injected dose per gram of tissue weight was calculated. […]

[1] = 6 h, pretreated with DES (blocking)

Tumor uptake (1 h, 60 min): 0.181 % injected dose/gram tissue
Tumor uptake (3 h, 180 min): 0.229 % injected dose/gram tissue
Blood uptake [1]: 0.072 % injected dose/gram tissue
Kidney uptake [1]: 1.296 % injected dose/gram tissue
Liver uptake [1]: 4.682 % injected dose/gram tissue
Lung uptake [1]: 2.173 % injected dose/gram tissue
Muscle uptake [1]: 0.172 % injected dose/gram tissue
Spleen uptake [1]: 2.366 % injected dose/gram tissue
Thyroid uptake [1]: 0.640 % injected dose/gram tissue
Uterus uptake [1]: 0.325 % injected dose/gram tissue
Tumor uptake (6 h, pretreated with DES (blocking), 360 min): 0.217 % injected dose/gram tissue
Tumor uptake (6 h, pretreated with DES (blocking), listed as 131 I-TX, 360 min): 0.22±0.059 % injected dose/gram tissue
Tumor uptake (6 h, pretreated with DES (blocking), listed as [^131 I]ITX, 360 min): 0.22±0.044 % injected dose/gram tissue
Tumor uptake (6 h, 360 min): 0.261 % injected dose/gram tissue
Tumor uptake (24 h, 1440 min): 0.267 % injected dose/gram tissue
Tumor uptake (24 h, listed as 131 I-ITX, 1440 min): 0.267±0.0160 % injected dose/gram tissue
tissue uptake at 1 h (blood, 1 h, read-out: Blood uptake): 0.158 %ID/g
tissue uptake at 3 h (blood, 3 h, read-out: Blood uptake): 0.121 %ID/g
tissue uptake at 6 h (blood, 6 h, read-out: Blood uptake): 0.124 %ID/g
tissue uptake at 24 h (blood, 24 h, read-out: Blood uptake): 0.001 %ID/g
tissue uptake at 1 h (kidney, 1 h, read-out: Kidney uptake): 1.88 %ID/g
tissue uptake at 3 h (kidney, 3 h, read-out: Kidney uptake): 2.37 %ID/g
tissue uptake at 6 h (kidney, 6 h, read-out: Kidney uptake): 1.36 %ID/g
tissue uptake at 24 h (kidney, 24 h, read-out: Kidney uptake): 0.381 %ID/g
tissue uptake at 1 h (liver, 1 h, read-out: Liver uptake): 5.6 %ID/g
tissue uptake at 3 h (liver, 3 h, read-out: Liver uptake): 6 %ID/g
tissue uptake at 6 h (liver, 6 h, read-out: Liver uptake): 4.63 %ID/g
tissue uptake at 24 h (liver, 24 h, read-out: Liver uptake): 2.47 %ID/g
tissue uptake at 1 h (lung, 1 h, read-out: Lung uptake): 3.95 %ID/g
tissue uptake at 3 h (lung, 3 h, read-out: Lung uptake): 3.71 %ID/g
tissue uptake at 6 h (lung, 6 h, read-out: Lung uptake): 2.84 %ID/g
tissue uptake at 24 h (lung, 24 h, read-out: Lung uptake): 0.512 %ID/g
tissue uptake at 1 h (muscle, 1 h, read-out: Muscle uptake): 0.201 %ID/g
tissue uptake at 3 h (muscle, 3 h, read-out: Muscle uptake): 0.253 %ID/g
tissue uptake at 6 h (muscle, 6 h, read-out: Muscle uptake): 0.204 %ID/g
tissue uptake at 24 h (muscle, 24 h, read-out: Muscle uptake): 0.005 %ID/g
tissue uptake at 1 h (spleen, 1 h, read-out: Spleen uptake): 3.38 %ID/g
tissue uptake at 3 h (spleen, 3 h, read-out: Spleen uptake): 3.31 %ID/g
tissue uptake at 6 h (spleen, 6 h, read-out: Spleen uptake): 2.33 %ID/g
tissue uptake at 24 h (spleen, 24 h, read-out: Spleen uptake): 0.688 %ID/g
tissue uptake at 1 h (thyroid, 1 h, read-out: Thyroid uptake): 0.393 %ID/g
tissue uptake at 3 h (thyroid, 3 h, read-out: Thyroid uptake): 0.748 %ID/g
tissue uptake at 6 h (thyroid, 6 h, read-out: Thyroid uptake): 0.776 %ID/g
tissue uptake at 24 h (thyroid, 24 h, read-out: Thyroid uptake): 0.493 %ID/g
tissue uptake at 1 h (tumor, 1 h, read-out: Tumor uptake): 0.18 ± 0.062 %ID/g
tissue uptake at 3 h (tumor, 3 h, read-out: Tumor uptake): 0.23 ± 0.152 %ID/g
tissue uptake at 6 h (tumor, 6 h, read-out: Tumor uptake): 0.26 ± 0.166 %ID/g
tissue uptake at 24 h (tumor, 24 h, read-out: Tumor uptake): 0.27 ± 0.016 %ID/g
tissue uptake at 1 h (uterus, 1 h, read-out: Uterus uptake): 0.414 %ID/g
tissue uptake at 3 h (uterus, 3 h, read-out: Uterus uptake): 0.546 %ID/g
tissue uptake at 6 h (uterus, 6 h, read-out: Uterus uptake): 0.408 %ID/g
tissue uptake at 24 h (uterus, 24 h, read-out: Uterus uptake): 0.151 %ID/g
Structure (SMILES): CCN(CC)CCOc1ccc(/C(=C(/CCC[131I])c2ccccc2)c2ccccc2)cc1 [^131 I-IODOTAMOXIFEN]
Tissue uptake findings (in words): both tumor and uterus uptake can be blocked
Tissue uptake findings (in words) (listed as 131 I-ITX): both tumor and uterus value were decreased in 6 h blocking group
